Reference: patent publication US20230221321A1, “METHOD FOR IDENTIFYING COMPOUNDS USEFUL FOR THE TREATMENT OF CANCER” (UNIVERSITÉ PARIS-SACLAY, priority 2020, published 2023)
Structures can show the parent of a compound that is named as a salt. Where two headings read alike, the source gives them in different places.

B1: CHCHD4 protein (coiled-coil-helix-coiled-coil-helix domain containing 4) (other)
chain: MSYCRQEGKDRIIFVTKEDHETPSSAELVADDPNDPYEEHGLILPNGNINWNCPCLGGMASGPCGEQFKSAFSCFHYSTEEIKGSDCVDQFRAMQECMQKYPDLYPQEDEDEEEEREKKPAEQAEETAPIEATATKEEEGSS
notes: In SPR the protein was coupled covalently to a CM5 chip; also called MIA40; mitochondrial intermembrane space import and assembly protein 40

What was measured:
AIF/CHCHD4 = target: T1, AIF/CHCHD4 (Homo sapiens, UniProt O95831); test: AlphaScreen (ALPHA) assay of the AIF103-613/CHCHD4 interaction; format: binding
T1 construct: The AIF103-613 protein (AIF protein fragment 103-613) and CHCHD4 protein were produced in BL21 + DE3 bacteria; made in house; host or cells: E. coli BL21 + DE3 (RIPL)
From the text: This method comprises the use: • of the AIF103-613 and CHCHD4 proteins previously produced; • of an AlphaScreen® kit (PerkinElmer) comprising donor beads and acceptor beads capable of conjugating to the AIF and CHCHD4 proteins; • of a positive control: the N27 peptide (corresponding to the 27 amino acids of the N-ter end of the CHCHD4 protein, as described in Hangen et al., 2015); • of a negative control: 0.1% bovine serum albumin (BSA) solution in phosphate buffered saline (PBS); • of a library of compounds to be tested: the Prestwick chemical compound library (Prestwick Chemical Library®) .
The ALPHA assay was first of all carried out at high throughput, using 384-well white microplates (Greiner, reference 781075), using 25 µl of total volume per well. The proteins, the positive control and the beads were diluted in a 0.1% BSA/PBS solution. All the distributions were carried out with an electronic multipipet, then the plates were centrifuged (200 g, 1 min). The plates were hermetically closed and incubated in the dark in a room at 23° C.
A library of 1280 small molecules, supplied by Prestwick Chemicals (Prestwick Chemical Library®) was screened. This library comprises compounds with various chemical and pharmacological properties, which are already approved by the health authorities, such as the FDA (Food and Drug Administration) or the EMEA (European Medicines Evaluation Agency). Each compound of the library is diluted in a 0.1% DMSO solution and used at a concentration of 10 µM. First of all, 5 µl of compound at […], of N27 at 3 µM (positive control) or of 0.1% BSA/PBS (negative control) were added to the wells. Secondly, 5 µl of AIF103-613 proteins were incubated with the compounds for 20 min before the addition of 5 µl of CHCHD4 for 2 h. Thirdly, 10 µl of a mixture of donor beads and acceptor beads at […] were incubated for 3 h. The analysis of the results was carried out by means of an EnSpire® multimode plate reader (PerkinElmer).
For each 384-well plate, 16 wells correspond to the positive control and 16 wells correspond to the negative control. The positive control corresponds to the measurement of the interaction of the AIF103-613 and CHCHD4 proteins in the presence of the N27 peptide (equivalent to the minimal signal). The negative control corresponds to the measurement of the interaction of the AIF103-613 and CHCHD4 proteins in the presence of the buffer (0.1% BSA/PBS) (equivalent to the maximum signal).
Following the high-throughput screening, the compounds are selected if the signal obtained in the presence of the compound is less than the following threshold TH:
For each compound previously selected, the ALPHA assay is repeated manually using another batch of powder of the compounds.
Each compound is tested at 10 µM and 30 µM due to the Hook effect particular to the ALPHAscreen technology and in order to select the compounds giving a signal located in the ascending part of the Hook bell and therefore active at low dose in a drug development perspective.
The compound is selected if: • the signal obtained in the presence of the compound is less than the threshold TH as described above; and • the signal obtained at 30 µM is less than the signal obtained at 10 µM.
In addition, for each compound thus selected, the dose-effect relationship of the compound is determined. This makes it possible to determine the median inhibitory concentration (IC50) of said compound.

AIF103-613/CHCHD4 = target: T2, AIF103-613/CHCHD4 (Homo sapiens, UniProt O95831); test: Surface plasmon resonance (SPR, Biacore) assay of the AIF/CHCHD4 interaction; format: binding; conditions: compound preincubated 20 min with AIF, injected onto immobilized CHCHD4; criterion at least 50% of the inhibition obtained with N27 peptide
T2 construct: The AIF103-613 protein (AIF protein fragment 103-613) and CHCHD4 protein were produced in BL21 + DE3 bacteria; made in house; host or cells: E. coli BL21 + DE3 (RIPL)
Experimental: FIG. 3: SPR analysis of the compounds identified by Alphascreen. (A) SPR validation of thioridazine and of mitoxantrone, by means of the […], as inhibitors of the AIF103-613/CHCHD4 interaction. The compounds at 10 µM were incubated for 20 min with AIF in DPBS at pH 7.4 at ambient temperature. Then, the mixture was then injected for 3 minutes at a rate of 30 µl per minute onto the CHCHD4 protein. The N27 peptide at 3 µM was used as a […]. (B) Surface plasmon resonance (SPR) sensorgrams, making it possible to follow the binding of AIF103-613 to CHCHD4 in the presence of thioridazine hydrochloride or of mitoxantrone dihydrochloride. The thioridazine hydrochloride and the mitoxantrone dihydrochloride were tested at increasing concentrations ranging from 0.5 µM to 50 µM.
Some of the compounds identified by means of the Alpha assay as described above were tested by surface plasmon resonance (Biacore™ T100, GE Healthcare Life Sciences). The CHCHD4 protein was immobilized covalently on a dextran matrix comprising COOH functional carboxyl groups (Series S CM5® sensor chip, GE Healthcare Life Sciences, 29149603). […]
The sensorgrams were analyzed using the BIAevaluation software (Version 2.0.4).
The inhibition of the interaction of the AIF and CHCHD4 proteins by thioridazine and mitoxantrone was analyzed by means of a surface plasmon resonance assay (cf. FIG. 3). […]

[1] = tested on: A549 non-small-cell lung cancer cells; test: Cytotoxicity by lactate dehydrogenase (LDH) release in A549 cells; format: cell-based, human; conditions: A549, 3 h treatment; lowest dose tested for which a toxicity greater than 20% was measured
Experimental: The effect of the compounds on the metabolism of a non-small-cell lung cancer cell line (A549) was tested using the Seahorse technology (XFe96, Agilent) and the cell death was evaluated by measuring the release of lactate dehydrogenase (LDH, Promega). The cells seeded into 96-well microplates (20 000 cells/well) were treated with the compounds as a dose response (0.03; 0.1; 0.3; 1; 3; 10 µM) for 3 h in serum-free DMEM medium and then mitochondrial respiration (OXPHOS) and glycolysis were measured in real time. At the end of the experiment, the culture supernatant was removed in order to analyze the cell death, and the number of cells was determined by counting, after labelling the cells with DAPI, using a fluorescence microscope (Zeiss). The number of cells per well at the end of the experiment was then used to normalize the results obtained by Seahorse.
The compound concentration indicated in the “toxicity” column represents the lowest dose tested for which a toxicity greater than 20% was measured.

[2] = target: T3, AIF103-613 protein (AIF protein fragment 103-613) (human, UniProt O95831 103-613); test: AlphaScreen cross-titration
T3 construct: also called apoptosis-inducing factor

[3] = obtained manually using the Alphascreen assay, read-out: IC50 AIF/CHCHD4

T1 sequence (O95831 103-613 limits assumed): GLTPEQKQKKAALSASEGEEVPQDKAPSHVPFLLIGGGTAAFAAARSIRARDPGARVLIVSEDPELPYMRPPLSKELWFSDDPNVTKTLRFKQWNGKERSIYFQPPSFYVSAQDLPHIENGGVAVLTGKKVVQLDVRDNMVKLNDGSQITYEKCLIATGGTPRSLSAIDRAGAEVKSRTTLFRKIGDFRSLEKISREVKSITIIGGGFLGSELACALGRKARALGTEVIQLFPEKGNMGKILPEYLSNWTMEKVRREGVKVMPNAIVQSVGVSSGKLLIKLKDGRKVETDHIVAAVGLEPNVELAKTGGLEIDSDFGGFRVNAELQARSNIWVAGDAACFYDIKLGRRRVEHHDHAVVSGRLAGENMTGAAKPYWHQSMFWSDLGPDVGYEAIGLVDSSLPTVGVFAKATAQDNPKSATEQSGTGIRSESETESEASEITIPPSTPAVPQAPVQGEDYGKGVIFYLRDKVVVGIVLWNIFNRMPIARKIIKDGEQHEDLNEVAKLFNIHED
T2 sequence (O95831 103-613 limits assumed): as above
T3 sequence (O95831 103-613): as the sequence (O95831 103-613 limits assumed) above

Molecule	IC50 (AIF/CHCHD4; [3])	inhibition of the interaction between the AIF and CHCHD4 proteins (SPR) (AIF103-613/CHCHD4)	Cellular toxicity [1]	IC50 (AIF/CHCHD4)	binding result [2]
CSc1ccc2c(c1)N(CCC1CCCCN1C)c1ccccc1S2 (stereo not shown) [Thioridazine hydrochloride]	24 µM	capable of inhibiting the interaction	1 µM	–	–
O=C1OC2(c3cc(Br)c(O)cc3Oc3c2cc(Br)c(O)[c]3[Hg][OH])c2ccccc21 (stereo not shown) [Merbromine]	–	–	–	0.169 µM	–
NCCNCCNCCNCCN [Tetraethylenepentamine pentahydrochloride]	9 µM	–	10 µM	–	–
Mitoxantrone dihydrochloride	1.27 µM	capable of inhibiting the interaction	3 µM	–	–
CCSc1ccc2c(c1)N(CCCN1CCN(C)CC1)c1ccccc1S2.O=C(O)CC(O)C(=O)O.O=C(O)CC(O)C(=O)O [Thiethylperazine dimalate]	10.6 µM	–	10 µM	–	–
CCN(CC)C(=S)SSC(=S)N(CC)CC [Disulfiram]	0.415 µM	–	3 µM	–	–
CO[C@H]1/C=C/O[C@@]2(C)Oc3c(C)c(O)c4c(O)c(c(/C=N/N5CCN(C6CCCC6)CC5)c(O)c4c3C2=O)NC(=O)/C(C)=C\C=C\[C@H](C)[C@H](O)[C@@H](C)[C@@H](O)[C@@H](C)[C@H](OC(C)=O)[C@@H]1C [Rifapentine]	4.8 µM	–	10 µM	–	–
Bromocriptine mesylate	4.57 µM	–	3 µM	–	–
COc1cc(-c2ccc(N=Nc3ccc4c(S(=O)(=O)O)cc(S(=O)(=O)O)c(N)c4c3O)c(OC)c2)ccc1N=Nc1ccc2c(S(=O)(=O)O)cc(S(=O)(=O)O)c(N)c2c1O [Chicago sky blue 6B]	1.44 µM	–	–	–	–
COC(=O)C1=C(C)NC(C)=C(C(=O)OC2CCCN(Cc3ccccc3)C2)[C@@H]1c1cccc([N+](=O)[O-])c1 (stereo partly shown) [Benidipine hydrochloride]	8 µM	–	10 µM	–	–
Nisoldipine	12 µM	–	–	–	–
B1	–	–	–	–	binds
